Consider 16 molecules from patent US11773078B2, “Furin inhibitors” (Glaxosmithkline Intellectual Property Development Limited, priority 2018, dated 2023).

Counter-ions that a name gives are not always drawn.

In assay [1] the target is T1, Furin (108-574-Tev-Flag-His) enzyme (Homo sapiens, UniProt P09958).
T1 construct: Furin (108-574-Tev-Flag-His) enzyme was expressed and purified from CHO cells; TEV cleavage site (C); FLAG (C); His (C); made in house; host or cells: CHO cells
Nature of the assay: Furin enzyme assay. The class given is biochemical. The gist of the method:
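Compounds ran as 11-point threefold dilutions (0.00017–10 μM final) against 40 pM furin, purified from CHO cells, for 2 h at room temperature. Buffer: 100 mM HEPES pH7.5 with 1 mM CaCl2 and 0.005% Triton X-100. Envision readout. Four-parameter curve gives pXC50.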

Assay [2] addresses T2, furin (endogenous protease) in U20S cells (Homo sapiens, UniProt P09958).
T2 construct: the endogenous protease cleaves GFP; endogenous in cells; host or cells: U2OS cells transduced with a BacMam reporter
Briefly: Furin cell-based assay (image-based, Golgi-targeted GFP with BMP10 furin/PCSK cleavage site).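 Also: Read-out is mean GFP fluorescence of Golgi puncta per cell by high-content imaging, retained when furin inhibited, over an eleven-point 0.00017–10 µM series, four-parameter fit.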 The settings on record: 24-hour incubation, read-out: furin golgi cell pXC50 (converted).

T1 sequence (P09958 108-574): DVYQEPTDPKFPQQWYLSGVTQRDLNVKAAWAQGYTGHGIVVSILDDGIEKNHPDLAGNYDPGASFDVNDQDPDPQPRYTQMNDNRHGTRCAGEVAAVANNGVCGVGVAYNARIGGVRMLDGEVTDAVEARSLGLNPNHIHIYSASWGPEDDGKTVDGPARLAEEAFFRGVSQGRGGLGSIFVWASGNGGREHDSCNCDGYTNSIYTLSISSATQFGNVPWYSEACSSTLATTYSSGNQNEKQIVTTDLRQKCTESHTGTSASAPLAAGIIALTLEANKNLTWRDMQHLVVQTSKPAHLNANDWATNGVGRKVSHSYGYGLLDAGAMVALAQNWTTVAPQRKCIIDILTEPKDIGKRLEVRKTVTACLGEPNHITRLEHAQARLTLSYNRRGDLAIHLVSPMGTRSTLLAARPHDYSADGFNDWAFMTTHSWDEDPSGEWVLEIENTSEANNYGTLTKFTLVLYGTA
T2 sequence (P09958 108-794): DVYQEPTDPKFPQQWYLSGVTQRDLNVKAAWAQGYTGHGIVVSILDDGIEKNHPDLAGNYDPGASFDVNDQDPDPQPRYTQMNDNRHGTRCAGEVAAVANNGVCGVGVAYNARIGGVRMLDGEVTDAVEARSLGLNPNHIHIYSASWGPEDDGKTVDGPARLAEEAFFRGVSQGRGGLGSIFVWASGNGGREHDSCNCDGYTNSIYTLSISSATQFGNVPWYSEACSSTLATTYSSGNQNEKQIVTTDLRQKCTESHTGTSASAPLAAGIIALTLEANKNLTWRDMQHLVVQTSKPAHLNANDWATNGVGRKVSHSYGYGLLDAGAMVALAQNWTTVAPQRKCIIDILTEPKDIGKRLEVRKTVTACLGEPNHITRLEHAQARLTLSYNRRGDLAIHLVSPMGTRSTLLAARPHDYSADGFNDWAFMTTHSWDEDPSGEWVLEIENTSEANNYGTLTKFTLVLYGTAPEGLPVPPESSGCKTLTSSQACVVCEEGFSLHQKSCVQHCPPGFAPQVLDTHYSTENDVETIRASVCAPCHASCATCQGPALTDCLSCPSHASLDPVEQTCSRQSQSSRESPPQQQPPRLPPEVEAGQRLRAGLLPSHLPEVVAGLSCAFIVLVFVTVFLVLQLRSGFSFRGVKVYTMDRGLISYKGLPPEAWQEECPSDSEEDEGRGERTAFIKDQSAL

Take `CC(=O)NCC1CCN(Cc2cc(Oc3ccc(N4CCN(C(C)CC(=O)O)CC4)nc3)nc(-c3cc(Cl)cc(Cl)c3)c2)CC1` (centres unmarked) [Example 281, 3-(4-(5-((4-((4-(Acetamidomethyl)piperidin-1-yl)methyl)-6-(3,5-dichlorophenyl)pyridin-2-yl)oxy)pyridin-2-yl)piperazin-1-yl)butanoic acid]: the “furin enzyme pIC50” value in assay [1] is 9.5. In addition, in assay [2], the EC50 is 39.8 nM.

`CNC(=O)NCC1CCN(Cc2cc(Oc3cnc(N4CCN(CC(C)C(=O)O)CC4)nc3)cc(-c3cc(Cl)cc(Cl)c3)c2)CC1` (centres unmarked) [Example 292, 3-(4-(5-((3′,5′-dichloro-5-((4-((3-methylureido)methyl)piperidin-1-yl)methyl)-[1,1′-biphenyl]-3-yl)oxy)pyrimidin-2-yl)piperazin-1-yl)-2-methylpropanoic acid]: the “furin enzyme pIC50” value in assay [1] amounted to 9.4. In assay [2], the EC50 is 50.1 nM.

As for `CC(=O)NCC1CCN(Cc2cc(Oc3cnc(N4CCN(CCC(C)(C)C(=O)O)CC4)nc3)nc(-c3cc(Cl)cc(Cl)c3)c2)CC1` [Example 370, 4-(4-(5-((4-((4-(Acetamidomethyl)piperidin-1-yl)methyl)-6-(3,5-dichlorophenyl)pyridin-2-yl)oxy)pyrimidin-2-yl)piperazin-1-yl)-2,2-dimethylbutanoic acid, 4 hydrochloride], in assay [1], the “furin enzyme pIC50” value is recorded as 9.2. The EC50 in assay [2] is 6.31 nM.

As for `O=C(O)CC1CCN(Cc2cc(Oc3cnc(N4CCNCC(F)C4)nc3)nc(-c3cc(Cl)cc(Cl)c3)c2)CC1` (centres unmarked) [Example 399, 2-(1-((2-(3,5-dichlorophenyl)-6-((2-(6-fluoro-1,4-diazepan-1-yl)pyrimidin-5-yl)oxy)pyridin-4-yl)methyl)piperidin-4-yl)acetic acid], the “furin enzyme pIC50” value in assay [1] came to 8.8. Further, the EC50 in assay [2] is 39.8 nM.

On to `CNCc1cc(Oc2ccc(N3CCNC(C)(C)C3)nc2)cc(-c2cc(Cl)cc(Cl)c2)c1` [Example 102, 1-(3′,5′-Dichloro-5-((6-(3,3-dimethylpiperazin-1-yl)pyridin-3-yl)oxy)-[1,1′-biphenyl]-3-yl)-N-methylmethanamine, 3 hydrochloride], for which, in assay [1], the “furin enzyme pIC50” value is 9.2. For the same molecule, the EC50 in assay [2] was 15.8 nM.

On to `O=C(O)CC1CCN(Cc2cc(Oc3cnc(N4CCNCC(O)C4)nc3)nc(-c3cc(Cl)cc(Cl)c3)c2)CC1` (centres unmarked) [Example 123, 2-(1-((2-(3,5-dichlorophenyl)-6-((2-(6-hydroxy-1,4-diazepan-1-yl)pyrimidin-5-yl)oxy)pyridin-4-yl)methyl)piperidin-4-yl)acetic acid], for which, in assay [1], the “furin enzyme pIC50” value is reported as 8.7. Besides, the EC50 in assay [2] is 100 nM.

For the molecule `CNC(=O)NCC1CCN(Cc2cc(Oc3ccc(N4CCN(CCS(C)(=O)=O)CC4)nc3)nc(-c3cc(Cl)cc(Cl)c3)c2)CC1` [Example 290, 1-((1-((2-(3,5-dichlorophenyl)-6-((6-(4-(2-(methylsulfonyl)ethyl)piperazin-1-yl)pyridin-3-yl)oxy)pyridin-4-yl)methyl)piperidin-4-yl)methyl)-3-methylurea], the “furin enzyme pIC50” value in assay [1] came out at 8.2. For the same molecule, the EC50 in assay [2] was 15.8 nM.

For the molecule `CCOC(=O)NCC1CCN(Cc2cc(Oc3cnc(N4CCN(CCC(=O)O)CC4)nc3)nc(-c3cc(Cl)cc(Cl)c3)c2)CC1` [Example 267, 3-(4-(5-((6-(3,5-dichlorophenyl)-4-((4-(((ethoxycarbonyl)amino)methyl)piperidin-1-yl)methyl)pyridin-2-yl)oxy)pyrimidin-2-yl)piperazin-1-yl)propanoic acid], the “furin enzyme pIC50” value in assay [1] is recorded as 9.9. In addition, the EC50 in assay [2] is 50.1 nM.

`O=C(O)CC1CCN(Cc2cc(Oc3cnc(N4CCNCC4)cn3)nc(-c3cc(Cl)cc(Cl)c3)c2)CC1` [Example 112, 2-(1-((2-(3,5-Dichlorophenyl)-6-((5-(piperazin-1-yl)pyrazin-2-yl)oxy)pyridin-4-yl)methyl)piperidin-4-yl)acetic acid]: the “furin enzyme pIC50” value in assay [1] was 8.9. Moreover, the EC50 in assay [2] was 126 nM.

As to `CN1CCN(c2ncc(Oc3cc(CN4CCC(CP(C)(C)=O)CC4)cc(-c4cc(Cl)cc(Cl)c4)n3)cn2)CC1` [Example 320, ((1-((2-(3,5-Dichlorophenyl)-6-((2-(4-methylpiperazin-1-yl)pyrimidin-5-yl)oxy)pyridin-4-yl)methyl)piperidin-4-yl)methyl)dimethylphosphine oxide, 4 hydrochloride], the “furin enzyme pIC50” value in assay [1] is 8.2. Besides, the EC50 in assay [2] was 12.6 nM.

`CC(C)(CO)CN1CCN(c2ncc(Oc3cc(CN4CCC(CC(=O)O)CC4)cc(-c4cc(Cl)cc(Cl)c4)n3)cn2)CC1` [Example 280, 2-(1-((2-(3,5-dichlorophenyl)-6-((2-(4-(3-hydroxy-2,2-dimethylpropyl)piperazin-1-yl)pyrimidin-5-yl)oxy)pyridin-4-yl)methyl)piperidin-4-yl)acetic acid]: the “furin enzyme pIC50” value in assay [1] is 8.3. For the same molecule, the EC50 in assay [2] was 15.8 nM.

For `CC(=O)NCC1CCN(Cc2cc(Oc3cnc(N4CCN(CCC(=O)O)CC4)nc3)cc(-c3cc(Cl)cc(Cl)c3)c2)CC1` [Example 168, 3-(4-(5-((5-((4-(Acetamidomethyl)piperidin-1-yl)methyl)-3′,5′-dichloro-[1,1′-biphenyl]-3-yl)oxy)pyrimidin-2-yl)piperazin-1-yl)propanoic acid], the “furin enzyme pIC50” value in assay [1] is recorded as 9.3. Moreover, in assay [2], the EC50 is 25.1 nM.

For `CN1CCN(c2ccc(Oc3cc(CN4CC[C@@H]5[C@H](CC4)[C@H]5C(=O)O)cc(-c4cc(Cl)cc(Cl)c4)n3)nn2)CC1` [Example 361, (1R,7S,8r)-4-((2-(3,5-dichlorophenyl)-6-((6-(4-methylpiperazin-1-yl)pyridazin-3-yl)oxy)pyridin-4-yl)methyl)-4-azabicyclo[5.1.0]octane-8-carboxylic acid], the “furin enzyme pIC50” value in assay [1] is 9. For the same molecule, the EC50 in assay [2] was 50.1 nM.

For `CN1CCN(c2ncc(Oc3cc(CN4CCC(NC(N)=O)CC4)cc(-c4cc(Cl)cc(Cl)c4)n3)cn2)CC1` [Example 329, 1-(1-((2-(3,5-dichlorophenyl)-6-((2-(4-methylpiperazin-1-yl)pyrimidin-5-yl)oxy)pyridin-4-yl)methyl)piperidin-4-yl)urea], in assay [1], the “furin enzyme pIC50” value was 8.2. The EC50 in assay [2] was 15.8 nM.

Regarding `O=C(O)CCN1CCN(c2ccc(Oc3cc(CN4CCC(CNC(=O)C5CC5)CC4)cc(-c4cc(Cl)cc(Cl)c4)n3)cn2)CC1` [Example 58, 3-(4-(5-((4-((4-(cyclopropanecarboxamidomethyl)piperidin-1-yl)methyl)-6-(3,5-dichlorophenyl)pyridin-2-yl)oxy)pyridin-2-yl)piperazin-1-yl)propanoic acid], the “furin enzyme pIC50” value in assay [1] stood at 9.2. Besides, in assay [2], the EC50 is 15.8 nM.

With `COC(=O)NCC1CCN(Cc2cc(Oc3cnc(N4CCN(CCC(=O)O)[C@@H](C)C4)nc3)nc(-c3cc(Cl)cc(Cl)c3)c2)CC1` [Example 294, (S)-3-(4-(5-((6-(3,5-dichlorophenyl)-4-((4-(((methoxycarbonyl)amino)methyl)piperidin-1-yl)methyl)pyridin-2-yl)oxy)pyrimidin-2-yl)-2-methylpiperazin-1-yl)propanoic acid], the “furin enzyme pIC50” value in assay [1] amounted to 10.1. The EC50 in assay [2] was 20 nM.
